Data set [1] relates to SUDHL-1 cells (human anaplastic large T-cell lymphoma cell line). Nature of the data set: Prevention of β-D-GA-related cytotoxicity by natural nucleosides, SUDHL-1 cells. The format is cell-based. As to the method: The prevention of β-D-GA-related cytotoxicity in CEM cells (human T-cell lymphoma) and in the SUDHL-1 cells (human anaplastic large T-cell lymphoma cell line) was studied by adding natural nucleosides. This experiment was initiated by adding 50 μM of natural nucleosides into the media, together with increasing concentration of β-D-GA. CEM cells were seeded at 2500 cells per well and incubated for 4 days (=fast growing cell line with a doubling time of 1.3 days). SUDHL-1 cells were seeded at 10,000 cells/well, and incubated for 3 days (=slow growing cell line, doubling time 3 days). The result of this experiment is plotted in FIG. 4.

In the next data set the test system is CEM cells. As to the kind of experiment: cells. It is filed as cell-based, human. As for the experimental part:
(§1) The cytotoxicity testing as performed herein is a standard technique. Briefly, cells are seeded in 96-well plates at various concentrations (dependent on cell type, duration of assay), typically at 5×10^3 cells per well, in the presence of increasing concentrations of the test compound (0, 1, 3, 10, 33, and 100 μM). After three (Vero cells), or four (CEM cells), or five (PBM cells) day-incubation, cell viability and mitochondrial activity are measured by adding the MTT-dye (Promega), followed by a 8 hours incubation. Afterwards the plates containing the dye are fixed by adding a stop-solution followed by another eight hour incubation. Finally, absorbance is read at 570 nm. Such methodologies are well described and available from the manufacturer (Promega).

For a further data set, the system named is PBM cells. Nature of the data set: cells. The format is cell-based, human. As for the experimental part: as §1
The subject of data set [2] is human malignant T and B cells and various tumor cell lines. Nature of the data set: Toxicity profile against human malignant T and B cells and various tumor cell lines (MTT, IC50). Particulars: for IC50: MTT assay, 3-5 days. The format is cell-based. As for the experimental part: as §1, with “Cytotoxicity” for “The cytotoxicity”, “here are” for “herein is a”, “techniques.” for “technique.”, “Depending on the cell-type incubation with test compound can vary in time, but is usually within the range of 3 to 5 days. Cell” for “After three (Vero cells), or four (CEM cells), or five (PBM cells) day-incubation, cell”, “eight” for “a 8”, “hours of” for “hours”
In order to explore the complete potential of this compound, a set of human malignant T and B cells and various tumor cell lines were incubated with […] at varying concentrations, and after the absorbance was read, an IC50 value was calculated. As a control, Ara-C, 5FU, and cyclo-heximide was taken alongside (Table 26).

The test system of another data set is Vero cells. As to the kind of experiment: cells. It is filed as cell-based. As for the experimental part:
as §1

Another data set concerns HCV replicon. Nature of the data set: HCV replicon system in Huh7 cells, replicon RNA by Q-RT-PCR (HCV ΔCt, ΔΔCt). The format is cell-based, hepatitis C virus. Particulars: Table 24. A general note: In antiviral work, replicon cells carry a viral genome segment that copies itself.
Data set [3] concerns rRNA (host RNA polymerase I product). As to the kind of experiment: rRNA ΔCt in Huh7 replicon cells (effect on host RNA polymerases). Particulars: Table 24, average of n. An excerpt:
In a typical setting, a compound might reduce both the host RNA polymerase activity and the replicon-encoded polymerase activity. Therefore, quantification of rRNA (or any other host RNA polymerase I product) or beta-actin mRNA (or any other host RNA polymerase II) and comparison with RNA levels of the no-drug control is a relative measurement of the effect of the test compound on host RNA polymerases.
With the availability of both the HCV ΔCt data and the rRNA ΔCt, a specificity parameter can be introduced. This parameter is obtained by subtracting both ΔCt values from each other.

Where [4] appears, read: CEM (human T-cell lymphoma cell line), MTT assay, incubation 3-5 days, read-out: Toxicity IC50.
The mark [5] stands for this setting: PBM (human peripheral blood mononuclear cells), MTT assay, incubation 3-5 days, read-out: Toxicity IC50.
Setting [6] is: BL41 (human B-cell lymphoma cell line), read-out: Toxicity IC50.
Setting [7] is: H9 (human T-cell lymphoblast cell line), read-out: Toxicity IC50.
The mark [8] stands for this setting: HEPG2 (human liver carcinoma cell line), read-out: Toxicity IC50.
Setting [9] is: JY (human B-cell lymphoma cell line, EBV transformed), read-out: Toxicity IC50.
Setting [10] is: LNCaP (human prostate adenocarcinoma cell line), read-out: Toxicity IC50.
The mark [11] stands for this setting: MCF-7 (human breast carcinoma cell line), read-out: Toxicity IC50.
Where [12] appears, read: SK-MEL-28 (human melanoma cell line), read-out: Toxicity IC50.
[13] abbreviates: SK-MES-1 (human lung squamous carcinoma cell line), read-out: Toxicity IC50.
The mark [14] stands for this setting: SupT1 (human T-cell lymphoblast cell line), read-out: Toxicity IC50.
Where [15] appears, read: Vero (African green monkey kidney cell line), MTT assay, incubation 3-5 days, read-out: Toxicity IC50.
The mark [16] stands for this setting: SUDHL-1 (human anaplastic large T-cell lymphoma cell line), read-out: Toxicity IC50.

Molecules are shown by their SMILES. Read-outs that look alike come from different tables or passages of the source. Where only a bound is given, the exact number is not on record here.

As to `Nc1ccn([C@H]2C[C@H](O)[C@@H](CO)O2)c(=O)n1` [2′-Deoxycytidine], the “prevention of β-D-GA toxicity, in words” value in data set [1] (50 μM natural nucleoside, SUDHL-1 cells, 3 days, FIG. 4) was “modest preventive activity effect”.
A word on the IC50: it is the concentration at which inhibition is half-maximal. Consider `O=c1[nH]cc(F)c(=O)[nH]1` [5FU], for which the IC50 in the data set on CEM cells (setting [4]) was 90.5 µM; in the data set on PBM cells (setting [5]), 13.7 µM; in data set [2] (setting [6]), 24.1 µM; in data set [2] (setting [7]), 14.2 µM; in data set [2] (setting [8]), 40.6 µM; in data set [2] (setting [9]), 7.5 µM. Further, the IC50 in data set [2] (setting [10]) is 22.1 µM; in data set [2] (setting [11]) it was 43.7 µM; in data set [2] (setting [12]) it was 11.2 µM; in data set [2] (setting [13]), 13.1 µM; in data set [2] (setting [14]) it was 53.6 µM; in the data set with Vero cells (setting [15]) it was 65 µM.
As for `Nc1ccn([C@@H]2O[C@H](CO)[C@@H](O)[C@@H]2O)c(=O)n1` [Ara-C, reference compound], the IC50 with CEM cells (setting [4]) stood at 0.6 µM; in the data set on PBM cells (setting [5]), 7 µM; in data set [2] (setting [16]), 3.7 µM; with Vero cells (setting [15]), 0.8 µM.
As to `C[C@@H]1C[C@@H]([C@H](O)CC2CC(=O)NC(=O)C2)C(=O)[C@@H](C)C1` [cyclo-heximide], the IC50 in the data set on CEM cells (Homo sapiens, CCRF-CEM, read-out: Toxicity IC50) was found to be 0.1 µM; in the data set on PBM cells (Homo sapiens, PBMC, read-out: Toxicity IC50), 2.6 µM; in data set [2] (Homo sapiens, B-cell, read-out: Toxicity IC50, H9 (human T-cell lymphoblast cell line)), 1 µM; in data set [2] (Homo sapiens, B-cell, read-out: Toxicity IC50, JY (human B-cell lymphoma cell line, EBV transformed)) it was 0.8 µM; in data set [2] (Homo sapiens, BL-41, read-out: Toxicity IC50, BL41 (human B-cell lymphoma cell line)), 0.3 µM; in data set [2] (Homo sapiens, HepG2, read-out: Toxicity IC50, HEPG2 (human liver carcinoma cell line)), 3.6 µM. Also, the IC50 in data set [2] (Homo sapiens, LNCaP, read-out: Toxicity IC50, LNCaP (human prostate adenocarcinoma cell line)) stood at 2.4 µM; in data set [2] (Homo sapiens, MCF7, read-out: Toxicity IC50, MCF-7 (human breast carcinoma cell line)), 1.5 µM; in data set [2] (Homo sapiens, SK-MEL-28, read-out: Toxicity IC50, SK-MEL-28 (human melanoma cell line)) it was 1 µM; in data set [2] (Homo sapiens, SK-MES-1, read-out: Toxicity IC50, SK-MES-1 (human lung squamous carcinoma cell line)), 3.4 µM; in data set [2] (Homo sapiens, SU-DHL-1, read-out: Toxicity IC50, SUDHL-1 (human anaplastic large T-cell lymphoma cell line)), 0.3 µM; in data set [2] (Homo sapiens, SUP-T1, read-out: Toxicity IC50, SupT1 (human T-cell lymphoblast cell line)), 0.6 µM. The IC50 with Vero cells (Chlorocebus sabaeus, Vero, read-out: Toxicity IC50) stood at 2.1 µM.
Broadly, the % inhibition is the change of the read-out against control, counted positive when it falls. On to `Nc1nc(=O)n([C@@H]2C[C@H](CO)[C@@H](O)[C@H]2O)cc1F` [β-D-GA], for which the IC50 is 1.9 µM in the data set with CEM cells; 2.9 µM in the data set on CEM cells (setting [4]); over 100 µM with PBM cells; over 100 µM in the data set on PBM cells (setting [5]); under 1 µM in data set [2] (setting [6]); 1.4 µM in data set [2] (setting [7]). Further, the IC50 is over 100 µM in data set [2] (setting [8]); 3 µM in data set [2] (setting [9]); 45.7 µM in data set [2] (setting [10]); over 100 µM in data set [2] (setting [11]); over 100 µM in data set [2] (setting [12]); over 100 µM in data set [2] (setting [13]). The IC50 in data set [2] (setting [16]) is 0.7 µM; in data set [2] (setting [14]), 0.3 µM; with Vero cells, over 57.4 µM; in the data set with Vero cells (setting [15]), over 100 µM. For the same compound, the “cytotoxic effect on CEM cells, in words” value in the data set on CEM cells is recorded as “selective cytotoxic effect on CEM cells”. The “% inhibition at 100 μM, PBM cells” value in the data set on PBM cells (100 μM, five day incubation, MTT) is given as 11.3%. In data set [2] (human malignant T and B cells vs PBM and non-T or B neoplastic cells), the “toxicity in tumor cell panel, in words” value was “potent toxicity in human malignant T and B cells, but not in human PBM cells and non-T or B neoplastic cells”. In addition, the “effectiveness against slow vs fast growing cells, in words” value in data set [1] (SUDHL-1 and CEM cells) is “equally effective against slower growing SUDHL-1 cells and fast growing CEM cells”. In the data set on HCV replicon (HCV RNA ΔCt minus rRNA ΔCt), the “Ave. ΔΔCt” value is 3.93. For the same compound, in the data set on HCV replicon (HCV replicon in Huh7 cells, average of n), the “Ave. HCV RNA ΔCt” value amounted to 6.04. Moreover, in data set [3], the “Ave. rRNA ΔCt” value came out at 2.10.
